Measured values reported in patent publication US11319304B2, “Pyridine quinoline compounds as MGLUR4 allosteric potentiators, compositions, and methods of treating neurological dysfunction” (Vanderbilt University, priority 2017, dated 2022).
pEC50: −log10 of the molar value.

Molecular target: mGluR4 (Homo sapiens, UniProt Q14833)
Test: mGlu4 PAM potentiation assay, CHO cells transfected with human mGluR4, Ca2+-sensitive dye fluorescence
Format: cell-based
Description: The disclosed compounds and compositions can be evaluated for their ability to act as a potentiator of metabotropic glutamate receptor activity, in particular mGluR4 activity, by any suitable known methodology known in the art. For example, Chinese Hamster Ovary (CHO) cells transfected with human mGluR4 or HEK cells co-transfected with rat mGluR4 and the G-protein regulated Inwardly Rectifying Potassium channel (GIRK) were plated in clear bottom, assay plates for assay in a Hamamatsu FDSS Fluorometric Plate Reader. The cells were loaded with either a Ca2+-sensitive fluorescent dye or the thallium responsive dye and the plates were washed and placed into a suitable kinetic plate reader. For human mGluR4 assays, a fluorescence baseline was established for 3-5 seconds, the disclosed compounds were then added to the cells, and the response in cells was measured. Approximately two and a half minutes later, a concentration of mGluR4 orthosteric agonist (e.g. glutamate, L-AP4, or L-SOP) eliciting approximately 20% (EC20) of the maximal agonist response was added to the cells, and the response was measured. Two minutes later, a concentration of mGluR4 agonist (e.g. glutamate, L-AP4, or L-SOP) eliciting 80% (EC80) of the maximal agonist response was added to the cells, and the response was measured. For rat mGluR4/GIRK experiments, a baseline was established for approximately five seconds, disclosed compounds were added, and either an EC20 or EC80 concentration of agonist was added approximately two and one half minutes later. Potentiation or antagonism of the agonist response of mGluR4 by the disclosed compounds was observed as an increase or decrease in response to the EC20 concentration of agonist in the presence of compound compared to the response to agonist in the absence of compound. Similarly, potentiation or antagonism of the agonist response of mGluR4 by the disclosed Compounds was observed as an increase or decrease in response to the EC80 concentration of agonist in the presence of compound compared to the response to agonist in the absence of compound.
The above described assay operated in two modes. In the first mode, a range of concentrations of the disclosed compounds are added to cells, followed by a single fixed concentration of agonist. If the compound acts as a potentiatior, an EC50 value for potentiation and a maximum extent of potentiation by the compound at this concentration of agonist is determined by non-linear curve fitting. If the compound acts as an antagonist, an IC50 value is determined by non-linear curve fitting. In the second mode, several fixed concentrations of the disclosed compounds are added to various wells on a plate, followed by a range in concentrations of agonist for each concentration of disclosed compound. The EC50 values for the agonist at each concentration of compound are determined by non-linear curve fitting. A decrease in the EC50 value of the agonist with increasing concentrations of the sample compound (a leftward shift of the agonist concentration-response curve) is an indication of the degree of mGluR4 potentiation at a given concentration of the sample compound. A decrease in the maximal response of the agonist with increasing concentrations of the sample compounds, with or without a rightward shift in agonist potency, is an indication of the degree of antagonism at mGluR4. The second mode also indicates whether the sample compounds also affect the maximum response to mGluR4 to agonists.

Sequence of mGluR4 (Q14833 33-912 limits assumed): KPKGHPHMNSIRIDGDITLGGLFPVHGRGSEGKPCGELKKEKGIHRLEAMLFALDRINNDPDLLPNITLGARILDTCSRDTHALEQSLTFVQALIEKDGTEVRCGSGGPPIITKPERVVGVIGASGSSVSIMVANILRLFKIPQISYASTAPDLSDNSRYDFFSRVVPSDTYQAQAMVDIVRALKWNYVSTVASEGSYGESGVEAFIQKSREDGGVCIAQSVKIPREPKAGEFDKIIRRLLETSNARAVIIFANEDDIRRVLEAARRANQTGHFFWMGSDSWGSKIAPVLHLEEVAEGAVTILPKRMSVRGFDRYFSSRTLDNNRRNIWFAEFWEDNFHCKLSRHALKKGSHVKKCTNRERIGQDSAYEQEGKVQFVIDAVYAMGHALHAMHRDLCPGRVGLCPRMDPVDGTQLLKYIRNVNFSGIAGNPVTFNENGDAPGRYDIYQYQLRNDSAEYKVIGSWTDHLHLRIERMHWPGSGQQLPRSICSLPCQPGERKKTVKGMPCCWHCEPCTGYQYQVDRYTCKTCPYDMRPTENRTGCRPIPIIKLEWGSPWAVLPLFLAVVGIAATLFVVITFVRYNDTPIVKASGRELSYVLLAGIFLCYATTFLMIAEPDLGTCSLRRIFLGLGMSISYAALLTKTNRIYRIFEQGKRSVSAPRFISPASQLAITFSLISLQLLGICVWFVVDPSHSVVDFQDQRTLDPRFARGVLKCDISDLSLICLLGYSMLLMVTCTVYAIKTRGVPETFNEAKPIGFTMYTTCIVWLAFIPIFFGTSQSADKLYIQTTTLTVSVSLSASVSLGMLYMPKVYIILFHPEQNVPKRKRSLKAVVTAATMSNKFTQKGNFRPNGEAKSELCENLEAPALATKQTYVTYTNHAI

Row | SMILES | pEC50
1 | Nc1cccnc1C(=O)Nc1cc(F)c2c(OCC3CCOC3)nccc2c1 (stereo not drawn) [Compound 79] | 7.32
2 | O=C(Nc1cc(F)c2c(OCC3CCOC3)nccc2c1)c1ncccc1F (stereo not drawn) [Compound 80] | 6.51
3 | O=C(Nc1cc(F)c2c(OCC3CCOC3)nccc2c1)c1ccc(F)cn1 (stereo not drawn) [Compound 81] | 7.09
4 | O=C(Nc1cc(F)c2c(OCC3CCOC3)nccc2c1)c1cccc(F)n1 (stereo not drawn) [Compound 82] | 6.89
5 | O=C(Nc1cc(F)c2c(OCC3CCOC3)nccc2c1)c1nc(F)ccc1F (stereo not drawn) [Compound 84] | 6.76
6 | O=C(Nc1ccc2c(OCC3CCOC3)nccc2c1)c1ccc(Cl)cn1 (stereo not drawn) [Compound 85] | 6.21
7 | O=C(Nc1ccc2c(OCC3CCOC3)nccc2c1)c1cccc(Cl)n1 (stereo not drawn) [Compound 86] | 6.21
8 | O=C(Nc1ccc2c(OCC3CCOC3)nccc2c1)c1cccc(F)n1 (stereo not drawn) [Compound 87] | 6.74
9 | O=C(Nc1ccc2c(OCC3CCOC3)nccc2c1)c1ncc(F)cc1Cl (stereo not drawn) [Compound 88] | 6.04
10 | Nc1cccnc1C(=O)Nc1cc(F)c2c(OCC3COCCO3)nccc2c1 (stereo not drawn) [Compound 91] | 7.03
11 | O=C(Nc1cc(F)c2c(OCC3COCCO3)nccc2c1)c1ncccc1F (stereo not drawn) [Compound 92] | 6.82
12 | O=C(Nc1cc(F)c2c(OCC3COCCO3)nccc2c1)c1ccc(F)cn1 (stereo not drawn) [Compound 93] | 6.52
13 | O=C(Nc1cc(F)c2c(OCC3CCOCC3)nccc2c1)c1ccc(F)cn1 [Compound 97] | 7.28
14 | O=C(Nc1cc(F)c2c(OCC3CCOCC3)nccc2c1)c1ncccc1C(F)(F)F [Compound 98] | 6.01
15 | Nc1nccnc1C(=O)Nc1ccc2c(OCC3CCOC3)nccc2c1 (stereo not drawn) [Compound 99] | 7.08
16 | CC1(C)CC(Oc2nccc3cc(NC(=O)c4ccccn4)cc(F)c23)CCO1 (stereo not drawn) [Compound 100] | 7.15
17 | CC1(C)CC(Oc2nccc3cc(NC(=O)c4ccc(F)cn4)cc(F)c23)CCO1 (stereo not drawn) [Compound 102] | 6.85
18 | CC1(C)CC(Oc2nccc3cc(NC(=O)c4ncc(F)cc4F)cc(F)c23)CCO1 (stereo not drawn) [Compound 103] | 7.12
19 | Cc1ccc(C(=O)Nc2ccc3c(OCC4CCOCC4)nccc3c2)nc1 [Compound 104] | 6.27
20 | O=C(Nc1ccc2c(OCC3CCOCC3)nccc2c1)c1ccc(F)cn1 [Compound 105] | 7.47
21 | O=C(Nc1ccc2c(OCC3CCOC3)nccc2c1)c1ccc(O)cn1 (stereo not drawn) [Compound 108] | 7.18
22 | Cc1ccoc1C(=O)Nc1ccc2c(OCC3CCOC3)nccc2c1 (stereo not drawn) [Compound 110] | 6.15
23 | Cc1ccoc1C(=O)Nc1ccc2c(OCC3CCOCC3)nccc2c1 [Compound 111] | 6.91
24 | Nc1cccnc1C(=O)Nc1ccc2c(Oc3ccncc3)nccc2c1 [Compound 112] | 6.40
25 | O=C(Nc1ccc2c(OCc3ccncc3)nccc2c1)c1ccc(F)cn1 [Compound 115] | 7.00
26 | Nc1cccnc1C(=O)Nc1ccc2c(OCC3COCCO3)nccc2c1 (stereo not drawn) [Compound 116] | 7.20
27 | O=C(Nc1ccc2c(OCC3COCCO3)nccc2c1)c1cccc(F)n1 (stereo not drawn) [Compound 118] | 6.67

The next lines start with the values.

Row | pEC50 | SMILES
28 | 7.41 | O=C(Nc1cc(F)c2c(OCC3CCOC3)nccc2c1)c1ccccn1 (stereo not drawn) [Compound 78]
29 | 6.81 | O=C(Nc1cc(F)c2c(OCC3CCOC3)nccc2c1)c1ncc(F)cc1F (stereo not drawn) [Compound 83]
30 | 6.09 | O=C(Nc1ccc2c(OCC3CCOC3)nccc2c1)c1nc(Cl)ccc1F (stereo not drawn) [Compound 89]
31 | 6.94 | O=C(Nc1cc(F)c2c(OCC3COCCO3)nccc2c1)c1ccccn1 (stereo not drawn) [Compound 90]
32 | 7.42 | O=C(Nc1cc(F)c2c(OCC3CCOCC3)nccc2c1)c1ccccn1 [Compound 94]
33 | 6.97 | Nc1cccnc1C(=O)Nc1cc(F)c2c(OCC3CCOCC3)nccc2c1 [Compound 95]
34 | 6.99 | O=C(Nc1cc(F)c2c(OCC3CCOCC3)nccc2c1)c1ncccc1F [Compound 96]
35 | 6.92 | CC1(C)CC(Oc2nccc3cc(NC(=O)c4ncccc4F)cc(F)c23)CCO1 (stereo not drawn) [Compound 101]
36 | 6.90 | CC1(C)CC(Oc2nccc3cc(NC(=O)c4ncccc4N)cc(F)c23)CCO1 (stereo not drawn) [Compound 106]
37 | 6.65 | O=C(Nc1ccc2c(OCC3CCOC3)nccc2c1)c1ccncn1 (stereo not drawn) [Compound 107]
38 | 7.04 | O=C(Nc1ccc2c(OCC3CCOCC3)nccc2c1)c1cccc(F)n1 [Compound 109]
39 | 6.22 | O=C(Nc1ccc2c(Oc3ccncc3)nccc2c1)c1ccc(F)cn1 [Compound 113]
40 | 6.64 | O=C(Nc1ccc2c(OCc3cccnc3)nccc2c1)c1ccc(F)cn1 [Compound 114]
41 | 6.48 | Nc1nccnc1C(=O)Nc1ccc2c(OCC3COCCO3)nccc2c1 (stereo not drawn) [Compound 117]
42 | 6.55 | O=C(Nc1ccc2c(OCC3COCCO3)nccc2c1)c1ccc(F)cn1 (stereo not drawn) [Compound 119]
43 | 6.48 | O=C(Nc1cnc2c(OCC3CCOCC3)nccc2c1)c1ccccn1 [Compound 120]
44 | 6.94 | Nc1cccnc1C(=O)Nc1cnc2c(OCC3CCOCC3)nccc2c1 [Compound 121]
45 | 6.34 | O=C(Nc1cnc2c(OCC3CCOCC3)nccc2c1)c1ccc(F)cn1 [Compound 122]
